Consider 21 compounds from US9493419B2, “Quinoline derivatives as anti-cancer agents” (The Hong Kong Polytechnic University, priority 2007, dated 2016).

Each structure is given as a SMILES string. Converted amounts (≈) assume the structure as drawn.

Series [1] has as its system Lung carcinoma cell line (A549). Description: MTS activity assay, A549. The format is cell-based. Particulars: 48 hours, relative to control; for viability at 50 µg/mL: Homo sapiens, A549, 50 μg/mL, read-out: Relative MTS Activity at 50 μg/mL Concentration, A549. The source says:
(§1) All the assays were done in triplicates.

A further series relates to Hep3B. Description: MTS activity assay, Hep3B. The format is cell-based, human. The settings on record: for viability at 50 µg/mL: Homo sapiens, Hep3B, read-out: Relative MTS Activity at 50 μg/mL Concentration, Hep3B.
Description: as §1
(In general: Tetrazolium dyes change colour on reduction, which living cells bring about.)

Series [2] has as its system Human liver cancer cell line Hep3B. Description: Preliminary anti-cancer screening, One Step ATP lite assay. Format: cell-based. Also on record: key to Relative activity to untreated control: “+” (more cell death); “−” (no cytotoxicity). Particulars: 48 hours; for Relative activity to untreated control: Hep3B, 50 ug/ml. Here is the method:
Human liver cancer cell line Hep3B was used for purpose of preliminary anti-cancer screening for the selected alkaloids. Cancer cells (1×10^4 per well) seeded in the 96 wells microtitre plates for 24 hours were prepared for the alkaloid screening. The selected compounds were prepared as a stock concentration of 50 mg/ml in dimethylsulfoxide (DMSO) and were added at a concentration of 50 μg/ml and incubated for a further of 48 hours. Untreated control received either total complete medium or 0.1% of DMSO. Cisplatin (CDDP, also at 50 μg/ml) was the positive reference which induced more than 95% in Hep3B. Afterwards, the evaluation of possible antiproliferative or cytotoxicity of those alkaloids was examined by the One Step ATP lite assay purchased from PerkinElmer according to the technical manual provided. […] The relative MTS activities were compared with the untreated control and illustrated using symbols “+” (more cell death) and “−” (no cytotoxicity).

Another series has as its system ESCC cell line HKESC-4. The experiment in a line: MTS activity assay, HKESC-4. The format is cell-based. The settings on record: for Relative MTS Activity at 50 μg/mL Concentration, HKESC-4: 48 hours, relative to control.
Description: as §1

Series [3] deals with Esophageal squamous cell carcinoma cell line KYSE150. Description: MTS activity assay, KYSE150. The format is cell-based, human. Particulars: for Relative MTS Activity at 50 μg/mL Concentration, KYSE150: 48 hours, relative to control.
Description: as §1

For series [4], the system named is Esophageal squamous cell carcinoma cell line HKESC-1. Description: MTS activity assay, HKESC-1. The format is cell-based. Particulars: for Relative MTS Activity at 50 μg/mL Concentration, HKESC-1: 48 hours, relative to control.
Description: as §1

In a further series the test system is KYSE150 xenograft tumors. The experiment in a line: Subcutaneous KYSE150 xenograft tumors in nude mice. Format: in vivo. The settings on record: 10 mg/kg/day i.p. for 19 days, compared with negative control (6% PEG), FIG. 2. The protocol:
Optically pure compound (−)-2b (ee up 99%) was tested for their anti-cancer effects against the subcutaneous xenograft tumors of human esophageal cancer derived from the cell line KYSE150, which was purchased from DSMZ (Braunschweig, Germany) and was cultured in a known way as previously described (for details see reference number 17).
(§2) Each group of three mice received intra-peritoneal (i.p.) injection daily with 10 mg/kg of optically pure isomers with 6% polyethylene glycol (PEG Mn 8000) for 19 days. The control group of two mice was injected daily with 6% PEG only. Tumor dimensions were measured regularly with calipers, and tumor volumes were estimated using two-dimensional measurements of length and width and calculated with the formula [l×(w)^2]×0.52 (l is length and w is width) as previously described.

Series [5] in a line: Histological examination of organs of treated mice. Format: in vivo. Particulars: mice after sacrifice; 10 mg/kg i.p. daily for 19 days. Here is the method: as §2
Series [6] concerns five carcinoma cell lines (Hep3B, A549, HKESC-1, HKESC-4 and KYSE150). The settings on record: against the cancer cell lines, FIG. 1.
Description: (§3) Lung carcinoma cell line (A549) and hepatocellular carcinoma (HCC) cell line (Hep3B) were obtained from American Type of Culture Collection (ATCC). Esophageal squamous cell carcinoma cell line KYSE150 was purchased from DSMZ (Braunschweig, Germany) [13]. […] Hep3B HCC and A549 lung carcinoma cell lines were maintained in DMEM and F12-K medium respectively with 10% of heat inactivated fetal bovine serum (Hyclone) together with antibiotics involving penicillin and streptomycin. All the ESCC cell lines (KYSE150, HKESC-1 and HKESC-4) were maintained in MEM supplemented with 10% of heat inactivated fetal bovine serum together with antibiotics involving penicillin and streptomycin. Cells were allowed to grow in a humidified cell culture incubator keeping at 5% carbon dioxide.
(§4) Briefly, 1×10^4 carcinoma cells were seeded at day 0. After 24 hours, medium was changed and various compounds were added at different concentrations. Cisplatin (CDDP), a commonly used anti-cancer agent, was also used as the positive control. After 48 hours of incubation, the medium was removed and MTS/PMS solution was added and they were incubated further for exactly 30 minutes. Afterwards, optical absorbance was determined at 490 nm according to the user manual (Promega). All the assays were done in triplicates.
Series [7] shares this test system. The experiment in a line: cells. The settings on record: read-out: MTS50 (50% of MTS reduction ability by the chemical treated cell as compared with control), against the cancer cell lines, FIG. 1.
Description: as §3, §4
Setting [8] is: 50 μg/mL, 48 hours, relative to control.

As to `CC1CCc2cccc(OCc3cccc(-c4ccccc4)c3)c2N1` (stereo not drawn) [Compound 14b, 8-(Biphenyl-3-ylmethoxy)-2-methyl-1,2,3,4-tetrahydroquinoline], the results for the viability at 50 µg/mL (in series [1]; in the series on Hep3B (setting [8])) were 124 ± 6.6% and 51 ± 6.8%, respectively.

`CC1CCc2cccc(OCc3ccc(OC(F)(F)F)cc3)c2N1` (stereo not drawn) [Compound 15b, 8-(4-(Trifluoromethoxy)benzyloxy)-1,2,3,4-tetrahydro-2-methylquinoline]: the results for the viability at 50 µg/mL (in series [1]; in the series with Hep3B (setting [8])) were 84 ± 2.9% and 76 ± 9%, respectively.

`CC(=O)Oc1cccc2c1NC(C)CC2` (stereo not drawn) [Compound 25b, 2-Methyl-1,2,3,4-tetrahydroquinolin-8-yl acetate]: in series [2], the “Relative activity to untreated control” value is given as “+”.

Take `CC1CCc2cccc(OCCN3CCCCC3)c2N1` (stereo not drawn) [Compound 8b, 8-(2-(Piperidin-1-yl)ethoxy)-1,2,3,4-tetrahydro-2-methylquinoline]: the “Relative activity to untreated control” value in series [2] is given as “+”.

For `COc1cccc(COc2cccc3c2NC(C)CC3)c1` (stereo not drawn) [Compound 12b, 8-(3-Methoxybenzyloxy)-1,2,3,4-tetrahydro-2-methylquinoline], the “Relative MTS Activity at 50 μg/mL Concentration, HKESC-4” value (“Relative MTS Activity … HKESC-4” below) in the series with ESCC cell line HKESC-4 stood at 0.716 ± 0.022. Also, the “Relative MTS Activity at 50 μg/mL Concentration, KYSE150” value (shortened to “Relative MTS Activity … KYSE150”) in series [3] came out at 0.845 ± 0.010. The viability at 50 µg/mL in the series on Hep3B (setting [8]) is 72.6 ± 6.5%. In addition, the “Relative MTS Activity at 50 μg/mL Concentration, HKESC-1” value (“Relative MTS Activity … HKESC-1” for short) in series [4] was 0.682 ± 0.001.

As to `CC1CCc2cccc(OCc3ccc(Cl)cc3)c2N1` (stereo not drawn) [Compound 18b, 8-(4-Chlorobenzyloxy)-1,2,3,4-tetrahydro-2-methylquinoline], the values for the viability at 50 µg/mL (in [1]; in the series with Hep3B (setting [8])) were 109 ± 3.9% and 60.9 ± 4.2%, respectively.

In the case of `CC1CCc2cccc(OCc3cccc([N+](=O)[O-])c3)c2N1` (stereo not drawn) [Compound 9b, 8-(3-Nitrobenzyloxy)-1,2,3,4-tetrahydro-2-methylquinoline], the viability at 50 µg/mL in series [1] was 70.6 ± 18.4%; in the series on Hep3B (setting [8]), 68.8 ± 2.7%. In addition, in the series with ESCC cell line HKESC-4, the “Relative MTS Activity … HKESC-4” value worked out at 0.698 ± 0.096. Further, the “Relative MTS Activity … KYSE150” value in [3] was 0.619 ± 0.025. Moreover, the “Relative MTS Activity … HKESC-1” value in series [4] came to 0.453 ± 0.012.

Consider `CC1CCc2cccc(OCc3ccc(C(F)(F)F)cc3)c2N1` (stereo not drawn) [Compound 17b, 8-(4-(Trifluoromethyl)benzyloxy)-1,2,3,4-tetrahydro-2-methylquinoline], for which the viability at 50 µg/mL in [1] came out at 98.3 ± 0.1%; in the series with Hep3B (setting [8]), 73.4 ± 2.4%.

For `COc1ccc(COc2cccc3c2NC(C)CC3)cc1` (stereo not drawn) [Compound 11b, 8-(4-Methoxybenzyloxy)-1,2,3,4-tetrahydro-2-methylquinoline], the viability at 50 µg/mL worked out at 75.9 ± 7.9% in series [1] and 55.4 ± 11.4% in the series with Hep3B (setting [8]). Moreover, the “Relative MTS Activity … HKESC-4” value with ESCC cell line HKESC-4 stood at 0.777 ± 0.019. Besides, the “Relative MTS Activity … KYSE150” value in series [3] was determined as 0.764 ± 0.001. For the same compound, the “Relative MTS Activity … HKESC-1” value in series [4] worked out at 0.917 ± 0.023.

In the case of `COc1ccc(COc2cccc3ccc(C)nc23)cc1` [Compound 11a, 8-(4-methoxybenzyloxy)-2-methylquinoline], the viability at 50 µg/mL came to 52.7 ± 1.8% in series [1] and 32 ± 1.7% with Hep3B (setting [8]). The “Relative MTS Activity … HKESC-4” value in the series on ESCC cell line HKESC-4 is 0.488 ± 0.017. In addition, in series [3], the “Relative MTS Activity … KYSE150” value was 0.797 ± 0.083. For the same compound, the “Relative MTS Activity … HKESC-1” value in series [4] is on record as 0.817 ± 0.076.

For the compound `Cc1ccc2cccc(OCc3ccc(C(F)(F)F)cc3)c2n1` [Compound 17a, 8-(4-(trifluoromethyl)benzyloxy)-2-methylquinoline], the viability at 50 µg/mL turned out to be 92 ± 4.2% in series [1] and 87.8 ± 7.3% in the series with Hep3B (setting [8]).

As for `CC1CCc2c(Br)cc(Br)c(O)c2N1` (single isomer, unassigned; (-)) [(−)-2b, 5,7-Dibromo-1,2,3,4-tetrahydro-2-methylquinolin-8-ol], the “volume growth of the KYSE150 xenograft tumors” value in the series with KYSE150 xenograft tumors was “effective in suppressing the volume growth”. The “Histological examination of liver, heart, lung and kidney sections” value in series [5] was “no observable damage”. In addition, the “MTS50 (50% of MTS reduction ability by the chemical treated cell as compared with control)” value in series [6] was around 5 µg/mL.

Regarding `Cc1ccc2cccc(OCc3ccc(OC(F)(F)F)cc3)c2n1` [Compound 15a, 8-(4-(trifluoromethoxy)benzyloxy)-2-methylquinoline], the values for the viability at 50 µg/mL (in series [1]; in the series on Hep3B (setting [8])) were 62.9 ± 8.1% and 77.7 ± 13%, respectively.

Take `CC(=O)Oc1cccc2c1N(C(C)=O)C(C)CC2` (stereo not drawn) [Compound 26b, 1-Acetyl-2-methyl-1,2,3,4-tetrahydroquinolin-8-yl acetate]: the “Relative activity to untreated control” value in series [2] is on record as “+”.

As to `CC1CCc2c(Br)cc(Br)c(O)c2N1` (single isomer, unassigned; (+)) [(+)-2b, 5,7-Dibromo-1,2,3,4-tetrahydro-2-methylquinolin-8-ol], the “cytotoxic activity relative to CDDP” value is reported as 1.5 fold with ESCC cell line HKESC-4 (cell line HKESC-4, preliminary results); “more than 2 fold” in series [3] (cell line KYSE150, preliminary results); 1.5 fold with Hep3B (cell line Hep3B, preliminary results); 1.5 fold in series [4] (cell line HKESC-1, preliminary results). The “MTS50 (50% of MTS reduction ability by the chemical treated cell as compared with control)” value in series [6] is around 5 µg/mL. Further, the IC50 in series [7] fell in the range of 4 to 10 µg/mL (≈ 12.5 to 31.2 µM).

As to `COc1cccc(COc2cccc3ccc(C)nc23)c1` [Compound 12a, 8-(3-methoxybenzyloxy)-2-methylquinoline], in the series with ESCC cell line HKESC-4, the “Relative MTS Activity … HKESC-4” value is 0.794 ± 0.005. Further, the “Relative MTS Activity … KYSE150” value in series [3] is recorded as 0.648 ± 0.013. Moreover, the viability at 50 µg/mL in the series on Hep3B (setting [8]) was 20.9 ± 3%. In series [4], the “Relative MTS Activity … HKESC-1” value turned out to be 0.535 ± 0.032.

On to `CC1CCc2cccc(OCc3ccc(F)cc3)c2N1` (stereo not drawn) [Compound 16b, 8-(4-Fluorobenzyloxy)-1,2,3,4-tetrahydro-2-methylquinoline], for which the viability at 50 µg/mL in series [1] is 90.8 ± 6.3%; with Hep3B (setting [8]), 41.2 ± 1.7%.

With `Cc1ccc2cccc(OCc3cccc(-c4ccccc4)c3)c2n1` [Compound 14a, 8-(biphenyl-3-ylmethoxy)-2-methylquinoline], the viability at 50 µg/mL in [1] amounted to 24.4 ± 0.3%; in the series with Hep3B (setting [8]), 37 ± 21.4%.

For the compound `CC1CCc2cccc(OCc3ccc(C#N)cc3)c2N1` (stereo not drawn) [Compound 13b, 4-((1,2,3,4-Tetrahydro-2-methylquinolin-8-yloxy)methyl)benzonitrile], the “Relative MTS Activity … HKESC-4” value with ESCC cell line HKESC-4 turned out to be 0.424 ± 0.062. Further, in [3], the “Relative MTS Activity … KYSE150” value is on record as 0.470 ± 0.087. Further, the viability at 50 µg/mL in the series with Hep3B (setting [8]) stood at 84.2 ± 2.4%. Also, the “Relative MTS Activity … HKESC-1” value in [4] amounted to 0.754 ± 0.017.

In the case of `[NH2][Pt]([NH2])([Cl])[Cl]` [CDDP, Cisplatin, reference compound], in [1], the “Relative MTS Activity at 50 μg/mL Concentration, A549” value was 0.216 ± 0.075. The “Relative MTS Activity … HKESC-4” value in the series on ESCC cell line HKESC-4 is listed as 0.158 ± 0.081. The “Relative MTS Activity … KYSE150” value in series [3] turned out to be 0.205 ± 0.032. Besides, the “Relative MTS Activity at 50 μg/mL Concentration, Hep3B” value in the series on Hep3B (setting [8]) was determined as 0.116 ± 0.031. In series [2] (50 μg/ml), the “effect induced by positive reference in Hep3B” value was “more than 95%”. In addition, in [4], the “Relative MTS Activity … HKESC-1” value is listed as 0.135 ± 0.017.

For the compound `CC1CCc2cccc(OCc3ccc([N+](=O)[O-])cc3)c2N1` (stereo not drawn) [Compound 10b, 8-(4-Nitrobenzyloxy)-1,2,3,4-tetrahydro-2-methylquinoline], the values for the viability at 50 µg/mL (in [1]; with Hep3B (setting [8])) were 166 ± 17.3% and 126 ± 3%, respectively. Moreover, in the series on ESCC cell line HKESC-4, the “Relative MTS Activity … HKESC-4” value is on record as 1.056 ± 0.050. Also, in series [3], the “Relative MTS Activity … KYSE150” value worked out at 1.097 ± 0.036. For the same compound, in [4], the “Relative MTS Activity … HKESC-1” value was determined as 1.337 ± 0.145.
